Test results published in paper PMC4811417, “Sulforaphane Suppresses Hepatitis C Virus Replication by Up-Regulating Heme Oxygenase-1 Expression through PI3K/Nrf2 Pathway” (PLoS ONE, 2016).
Read-outs that look alike come from different tables or passages of the source.

Tests used:
[1] = Cell viability / cytotoxicity, MTS assay; format: cell-based; details: human; Ava5 cells, MTS assay; read-out: Cyto-Toxicity (CC50)
Excerpt: (§1) The CellTiter 96 Aqueous One Solution Cell Proliferation assay system (Promega, Madison, WI, USA), which is a colorimetric approach for the detection of the cytotoxic effect of a compound, was used to measure cell viability according to the manufacturer’s protocol. […] The absorbance values were detected at 490 nm using a 96-well plate reader (Bio-Rad, Hertfordshire, UK).

[2] = test system: HCV subgenomic replicon (genotype 1b) in Ava5 cells; experiment: Anti-HCV activity in HCV replicon (Ava5) cells, qRT-PCR / Western blotting; format: cell-based, Hepatitis C virus; details: for Selective Index (SI): CC50/EC50, Ava5 cells; for EC50: read-out: Anti-HCV activity (EC50)
Protocol: Huh-7, Huh7.5, Ava5 (harboring HCV subgenomic replicon; genotype 1b) and Huh7.5/J6/JFHEMCVIRESRlucNeo cells (harboring HCV subgenomic replicon RNA and renilla luciferase reporter gene; genotype 2a) obtained from Apath, LLC (St. Louis, MO) were routinely passaged in Dulbecco’s modified Eagle’s medium containing 10% heat-inactivated fetal bovine serum, 1% nonessential amino acids, and 1% antibiotic-antimycotic in a 37°C incubator with a humidified atmosphere containing 5% CO2. Sulforaphane (SFN), phenethyl isothiocyanate, benzyl isothiocyanate, benzyl isothiocyanate, butyl isothiocyanate, allyl isothiocyanate, and HO-1-specific inhibitor (tin protoporphyrin IX dichloride; SnPP) were obtained from Sigma Aldrich Co. (St. Louis, MO, USA). Biliverdin was obtained from MP Biomedicals, Inc (Santa Ana, CA, USA). […] Daclatasvir and telaprevir were obtained from Legend Stat International Co., Ltd (Omdurman, Sudan). Sofosbuvir was obtained from Shanghai Haoyuan Chemexpress Co., Ltd. (Shanghai, China). These compounds were stored at a concentration of 10 mM in 100% dimethyl sulfoxide (DMSO) at 4°C until use. All the reactions were performed using a final concentration of 0.1% DMSO.
(§2) Total cellular RNA extracted from cultured cells was purified using the Total RNA Miniprep Purification Kit (GMbiolab Co., Ltd, Taiwan). RNA samples were reverse transcribed into complementary DNA using the M-MLV Reverse Transcription System (Promega). Quantitative real-time polymerase chain reaction (qRT-PCR) was performed to assess the relative levels of gene expression using the ABI Step One Real-Time PCR-System (ABI Warrington, UK). Glyceraldehydes-3-phosphate dehydrogenase (gapdh) gene expression was used as the endogenous control for normalization in all qRT-PCR analyses. Relative expression was calculated using the comparative Ct method. Absolute quantitation of HCV RNA copies was calculated and determined relative to standard curves comprised of serial dilution of expression plasmids containing the coding sequence of HCV NS5B using RT-qPCR. The primer sequences primers for qRT-PCR were used as previously described (Table 1).
(§3) Western blotting was performed as previously described. Proteins from cell lysates were separated using SDS-PAGE and transferred onto PVDF membranes. The membranes were blocked with 5% nonfat milk in phosphate-buffered saline containing Tween 20 (PBST) and incubated overnight at 4°C with primary antibodies against GAPDH (1:10,000; GeneTex, CA, USA), NS5B (1:5,000; Abcam, Cambridge, MA, USA), Nrf2 (1:3,000; GeneTex), HO-1 (1:3,000; GeneTex), biliverdin reductase A (BVRA), Keap1 and Bach1 (1:1,000; Abcam), and total-phohphoinositide 3-kinase (PI3K) or phosphor-PI3K (1:1000; Cell Signaling Technology, Inc., Beverly, MA, USA). The immunoreactive blot signals were detected using the enhanced chemiluminescence Western blotting reagent (Perkin-Elmer, CT, USA).
To investigate the anti-HCV activity of SFN and its analogs (Fig 1A), Huh-7-derived Ava5 cells that harbor an HCV subgenomic RNA replicon were treated with increasing concentrations of SFN for 3 days. The anti-HCV activity and cytotoxicity of SFN and its analogs were analyzed by qRT-PCR and MTS assay, respectively. […] Moreover, the anti-HCV replication activity of SFN was analyzed by Western blotting and qRT-PCR.

[3] = test system: JFH-1 virus particle-infected Huh-7 cells; experiment: Combination of SFN with antiviral drugs in HCV-infected cells (CalcuSyn2, Chou and Talalay); format: cell-based, Hepatitis C virus; details: JFH-1-infected Huh-7 cells; for CI values at ED75 / CI values at ED90: fixed ratio, 3 days
Protocol: (§4) The anti-HCV activities of the different combinations were determined by qRT-PCR. The drug combination data were analyzed using CalcuSyn2™ software (Biosoft, Cambridge, UK) based on the method by Chou and Talalay. The multiple drug dose effects and combination index (CI) values were evaluated and presented as antagonism (CI > 1), additivity (CI = 1) or synergism (CI < 1).

[4] = test system: HCV subgenomic replicon in Ava5 cells; experiment: Combination of SFN with antiviral drugs in replicon cells (CalcuSyn2, Chou and Talalay); format: cell-based, Hepatitis C virus; details: for CI values at ED75 / CI values at ED90: fixed ratio, 3 days
Protocol: as §4

HCV NS3/4A protease = HCV NS3/4A protease (Hepatitis C virus genotype 1b, UniProt Q9WMX2); details: Huh-7 cells, 0–10 μM, 3 days, compared to untreated controls; restored with SnPP
Protocol: The supernatants were harvested for measurement of SEAP activity by Phospha-Light assay kit (Tropix, Bedford, UK).
The culture supernatants were harvested and the SEAP activity was analyzed by Phospha-Light assay kit. Telaprevir (1 μM) and biliverdin (100 μM) served as positive controls for anti-HCV protease activity. The relative SEAP activities were presented as fold changes compared to untreated cells, in which as the activity was considered to be 1.

[5] = test system: HCV JFH-1 in Huh7.5 cells
Protocol: The effect of SFN on HCV entry was determined according to previously described methods [22]. Briefly, Huh7.5 cells were infected with JFH-1 and treated with SFN for 1 hour at 37°C (endocytosis/fusion period). Finally, cells were washed and incubated in complete culture medium at 37°C for 45 hours. Subsequently, the cells were collected to quantify intracellular HCV RNA copy numbers. The effect of SFN on assembly and secretion were determined according to previously described methods [23]. The Huh7.5 cells were infected with JFH-1 and treated with indicated concentration of SFN. The viral supernatants and cell pellets were collected at 3 days postinfection for virus titration by qRT-PCR.
(A) Huh7.5 cells were infected with JFH-1 and treated with SFN for 1 hr at 37°C and then the infectecells were washed and incubated in complete culture medium. The intracellular HCV RNA copy numbers were quantified by qRT-PCR. The treatment of heparin served as positive control for the inhibition of HCV entry. The relative HCV entry were presented as percentage changes compared to the SFN-untreated cells, which were considered as 100%. (B) Huh7.5 cells were infected with JFH-1 and then treated with SFN for 72 hrs. The supernatant and cell lysate were collected and the HCV RNA copy numbers were quantified by qRT-PCR.

Ava5 cells = experiment: Cell viability / cytotoxicity, MTS assay; format: cell-based; details: at doses where viral replication was inhibited
Excerpt: as §1

[6] = test system: IFN response (IFN-α, ISRE, OAS1, OAS2, OAS3, PKR)
Protocol: as §2

PI3K = details: Ava5 cells, 7.5 μM SFN, 15 min after treatment
Protocol: as §3

[7] = rats, oral dosing of 50 μmol of SFN, cited from earlier work
HO-1 = details: Ava5 cells, 0–10 μM, 3 days
Protocol: as §2
Western blotting was performed as previously described. Proteins from cell lysates were separated using SDS-PAGE and transferred onto PVDF membranes. […] The immunoreactive blot signals were detected using the enhanced chemiluminescence Western blotting reagent (Perkin-Elmer, CT, USA).

bilirubin / BVR = details: Ava5 cells, 3 days
Protocol: Intracellular bilirubin level was quantified as previously described [24]. Cells were seeded in 6-well plates at a density of 4 × 10^5 cells per well and treated with SFN at indicated concentrations for 3 days. Cell lysates were harvested and the amount of bilirubin was quantified using Calibrator for Automated Systems (c.f.a.s) (Roche Diagnostics Ltd., South San Francisco, CA, USA) and MeDiPro direct bilirubin test kit (Formosa Biomedical Technology Corp., Taipei, Taiwan). The absorbance values at 546 and 660 nm were measured using the Epoch microplate spectrophotometer (BioTek Instruments, Inc., Winooski, VT, USA).
The parental Huh-7 cells were used to determine basal bilirubin levels. […] Ava5 cells were treated with the indicated concentrations of SFN for 3 days. The expression of BVR was analyzed by qRT-PCR and Western blotting using specific primers and antibodies for BVR and GAPDH, respectively. GAPDH expression was used as protein loading control.

Nrf2/ARE = experiment: ARE transactivation and Nrf2 expression in Ava5 cells (p3xARE-Luc, Western blotting)
[8] = test system: HCV JFH-1 (genotype 2a) in Huh-7 cells; details: JFH-1-infected Huh-7 cells, 3 days
Protocol: HCV infectious particles (JFH-1; genotype 2a) were produced as previously described. HCV infection assay was used to determine the antiviral effect of SFN. Huh-7 cells were seeded in 24-well plates at a density of 5 × 10^4 cells per well and were infected with HCV for 6 h at a multiplicity of infection (MOI) of 0.1. The HCV-infected cells were treated with different concentrations (0–10μM) of SFN and incubated for 3 days, following which total RNA samples were extracted and subjected to qRT-PCR analysis for the quantification of HCV replication.

[9] = Hepatitis C virus, 72 h, Ava5 cells, 3 days, HCV RNA levels by qRT-PCR

HCV NS3/4A protease, sequence (Q9WMX2 1027-1657): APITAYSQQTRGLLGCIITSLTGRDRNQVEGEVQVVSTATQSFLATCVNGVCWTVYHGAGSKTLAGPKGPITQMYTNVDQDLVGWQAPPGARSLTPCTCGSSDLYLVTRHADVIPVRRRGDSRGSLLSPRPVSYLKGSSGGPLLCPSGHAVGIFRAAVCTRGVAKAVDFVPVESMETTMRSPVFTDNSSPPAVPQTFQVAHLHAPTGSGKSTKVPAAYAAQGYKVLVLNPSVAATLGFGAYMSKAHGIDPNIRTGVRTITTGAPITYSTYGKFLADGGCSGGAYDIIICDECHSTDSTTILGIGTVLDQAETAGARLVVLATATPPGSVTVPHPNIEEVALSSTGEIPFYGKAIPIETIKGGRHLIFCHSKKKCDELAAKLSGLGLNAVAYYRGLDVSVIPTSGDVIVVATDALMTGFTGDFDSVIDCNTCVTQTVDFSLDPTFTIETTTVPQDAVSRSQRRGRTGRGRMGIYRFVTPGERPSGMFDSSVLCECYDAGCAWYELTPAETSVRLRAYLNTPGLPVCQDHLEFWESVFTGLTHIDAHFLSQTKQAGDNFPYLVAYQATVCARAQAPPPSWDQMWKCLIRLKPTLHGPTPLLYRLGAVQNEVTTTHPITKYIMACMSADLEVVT
HCV NS3/4A protease, sequence (Q9WMX2 1658-1711): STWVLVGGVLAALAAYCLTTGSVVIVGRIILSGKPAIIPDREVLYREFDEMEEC

C=CCN=C=S [Allyl isothiocyanate, allyl isothiocyanate]
CC50 at 3 days [1]: 33 ± 3 µM
Selective Index (SI) [2]: 1.5
EC50 [2, 9]: 20 ± 2 µM

S=C=NCc1ccccc1 [Benzyl isothiocyanate, benzyl isothiocyanate]
CC50 at 3 days [1]: 67 ± 2 µM
Selective Index (SI) [2]: 3
EC50 [2, 9]: 20 ± 2 µM

CCCCN=C=S [Butyl isothiocyanate, butyl isothiocyanate]
CC50 at 3 days [1]: 95 ± 6 µM

COC(=O)N[C@H](C(=O)N1CCC[C@H]1c1nc(-c2ccc(-c3ccc(-c4c[nH]c([C@@H]5CCCN5C(=O)[C@@H](NC(=O)OC)C(C)C)n4)cc3)cc2)c[nH]1)C(C)C [Daclatasvir]
Influence [3]: Synergistic
CI values at ED75 [3]: 0.5
CI values at ED90 [3]: 0.4
Influence [4]: Synergistic
CI values at ED75 [4]: 0.5
CI values at ED90 [4]: 0.4

S=C=NCCc1ccccc1 [Phenethyl isothiocyanate, phenethyl isothiocyanate]
CC50 at 3 days [1]: 10 ± 1.5 µM
EC50 ([2]; Hepatitis C virus, Ava5, 72 h): 2.5 ± 0.5 µM

CC(C)OC(=O)[C@H](C)N[P@](=O)(OC[C@H]1O[C@@H](n2ccc(=O)[nH]c2=O)[C@](C)(F)[C@@H]1O)Oc1ccccc1 [Sofobuvir, sofosbuvir]
Influence [3]: Synergistic
CI values at ED75 [3]: 0.5
CI values at ED90 [3]: 0.4
Influence [4]: Synergistic
CI values at ED75 [4]: 0.5
CI values at ED90 [4]: 0.4

C[S+]([O-])CCCCN=C=S (stereo not shown) [Sulforaphane]
HCV protease activity (SEAP) (HCV NS3/4A protease): significantly decreased
inhibition on viral entry ([5]; Huh7.5 cells infected with JFH-1, SFN 1 hour): no significant inhibition
inhibition on viral assembly ([5]; Huh7.5 cells infected with JFH-1, SFN 3 days): no significant inhibition
cytotoxicity (cell viability by MTS assay) (Ava5 cells): did not induce significant cytotoxicity
CC50 at 3 days [1]: 52 ± 3 µM
inhibition of viral replication ([2]; 10 μM SFN, Ava5 cells, 3 days, compared to SFN-untreated cells): 90%
HCV protein synthesis and RNA replication ([2]; Ava5 cells, 0–10 μM, 3 days, concentration-dependent): significantly reduced
Selective Index (SI) [2]: ~10
EC50 ([2]; Hepatitis C virus, Ava5, 72 h): 5 ± 1.5 µM
IC50 ([2]; Hepatitis C virus, Ava5, HCV replicon cells and infectious system, read-out: IC50 value, suppression of HCV protein and RNA levels): 5.7 ± 0.2 µM
IFN-α2 and IFN-α17 expression ([6]; Ava5 cells, 3 days, qRT-PCR, attenuated with SnPP): significantly induced
IFN-α levels in culture supernatants ([6]; Ava5 cells, ELISA, effective antiviral concentrations, attenuated by SnPP): significantly increased
expression of IFN response genes (OAS1, OAS2, OAS3, PKR) ([6]; Ava5 cells, qRT-PCR, attenuated by SnPP): significantly induced
ISRE-mediated luciferase activity ([6]; pISRE-Luc-transfected Ava5 cells, 3 days, attenuated with SnPP): significant induction
phosphorylation of PI3K (PI3K): significantly induced
plasma concentration ([7]; reached within 4h): around 20 μM
elimination half-life [7]: 2.2 h
time at which plasma concentration of SFN occurred [7]: 1 h
HO-1 RNA and protein levels (HO-1): significantly increased
bilirubin levels (bilirubin / BVR; 0–10 μM): significant increase
BVR RNA or protein levels (bilirubin / BVR): did not detect any significant changes
protein levels of Keap1 and Bach1 (Nrf2/ARE; Ava5 cells): did not observe significant changes
expression of Nrf2 in cytoplasmic and nuclear fractions (Nrf2/ARE; Ava5 cells, concentration-dependent): significant increase
ARE-mediated luciferase activity (Nrf2/ARE; p3xARE-Luc-transfected Ava5 cells, 3 days, effective antiviral concentrations): significantly increased
antiviral activity in the HCV JFH-1 infection system [8]: exhibited antiviral activity

CCC[C@H](NC(=O)[C@@H]1[C@H]2CCC[C@H]2CN1C(=O)[C@@H](NC(=O)[C@@H](NC(=O)c1cnccn1)C1CCCCC1)C(C)(C)C)C(=O)C(=O)NC1CC1 [Telapriver, telaprevir]
Influence [3]: Synergistic
CI values at ED75 [3]: 0.6
CI values at ED90 [3]: 0.5
Influence [4]: Synergistic
CI values at ED75 [4]: 0.7
CI values at ED90 [4]: 0.6
